Data published in ChEMBL document CHEMBL1909542, “Synthesis and acrosin inhibitory activity of substituted 4-amino-N-(diaminomethylene) benzenesulfonamide derivatives” (Bioorg Med Chem Lett, 2011).

What follows are molecules tested against Acrosin (Homo sapiens, UniProt P10323) (assay: Inhibition of acrosin activity in human spermatozoa using N-alpha-benzoyl-DL-arginine para-nitroanilide-HCI as a substrate after 3 hrs by spectrophotometric analysis).
Sequence of Acrosin (P10323 20-42 limits assumed): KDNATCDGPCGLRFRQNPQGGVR
Sequence of Acrosin (P10323 43-343 limits assumed): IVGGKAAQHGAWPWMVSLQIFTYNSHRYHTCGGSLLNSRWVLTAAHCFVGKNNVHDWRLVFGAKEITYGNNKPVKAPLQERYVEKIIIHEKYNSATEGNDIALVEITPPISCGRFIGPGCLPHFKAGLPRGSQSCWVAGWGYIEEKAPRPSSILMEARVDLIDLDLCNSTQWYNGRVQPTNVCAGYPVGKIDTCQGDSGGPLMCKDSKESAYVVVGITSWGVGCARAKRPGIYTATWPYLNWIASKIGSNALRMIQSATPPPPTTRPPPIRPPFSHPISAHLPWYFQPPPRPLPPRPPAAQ
Molecule `COc1ccc(C(=O)Nc2ccc(S(=O)(=O)N=C(N)N)cc2)cc1` has an IC50 of 2.21 mM. `Cc1ccc(C(=O)Nc2ccc(S(=O)(=O)N=C(N)N)cc2)cc1` was tested, and the IC50 was 2.06 mM. `NC(N)=NS(=O)(=O)c1ccc(NC(=O)c2ccccc2Cl)cc1` gave an IC50 of 6.3 mM. With `NC(N)=NS(=O)(=O)c1ccc(NC(=O)c2cccc(Cl)c2)cc1` the IC50 was 7 mM. With `NC(N)=NS(=O)(=O)c1ccc(NC(=O)c2ccc(Cl)cc2Cl)cc1` the IC50 was 5.63 mM. For `NC(N)=NS(=O)(=O)c1ccc(NC(=O)c2c(Cl)cccc2Cl)cc1`, the IC50 was 5.96 mM. For `NC(N)=NS(=O)(=O)c1ccc(NC(=O)c2ccc(Cl)c(Cl)c2)cc1`, the IC50 was 3.8 mM. In the case of `NC(N)=NS(=O)(=O)c1ccc(NC(=O)c2ccccc2Br)cc1`, the IC50 is reported as 7.63 mM. `NC(N)=NS(=O)(=O)c1ccc(NC(=O)c2ccc(F)cc2)cc1` gave an IC50 of 7.11 mM. `NC(N)=NS(=O)(=O)c1ccc(NC(=O)c2c(F)cccc2F)cc1` showed an IC50 of 7.18 mM. Molecule `NC(N)=NS(=O)(=O)c1ccc(NC(=O)c2ccc(CCl)cc2)cc1` has an IC50 of 3.84 mM. For `Cc1cc(C)c(C(=O)Nc2ccc(S(=O)(=O)N=C(N)N)cc2)c(C)c1`, the IC50 was 2.45 mM. Work on `NC(N)=NS(=O)(=O)c1ccc(NC(=O)c2cccc(C(F)(F)F)c2)cc1` yielded an IC50 of 7.05 mM. Molecule `NC(N)=NS(=O)(=O)c1ccc(NC(=O)c2cc([N+](=O)[O-])cc([N+](=O)[O-])c2)cc1` has an IC50 of 2.5 mM. In the case of `CCc1ccc(C(=O)Nc2ccc(S(=O)(=O)N=C(N)N)cc2)cc1`, the IC50 is reported as 0.21 mM. With `CCOc1ccc(C(=O)Nc2ccc(S(=O)(=O)N=C(N)N)cc2)cc1` the IC50 was 0.13 mM. `CCC(=O)Nc1ccc(S(=O)(=O)N=C(N)N)cc1` showed an IC50 of 9 mM. With `CCCC(=O)Nc1ccc(S(=O)(=O)N=C(N)N)cc1` the IC50 was 9.58 mM. `CCCCC(=O)Nc1ccc(S(=O)(=O)N=C(N)N)cc1` gave an IC50 of 1.58 mM. `NC(N)=NS(=O)(=O)c1ccc(NC(=O)CN2CCCCC2)cc1` showed an IC50 of 7.41 mM. For `CC1CCCCN1CC(=O)Nc1ccc(S(=O)(=O)N=C(N)N)cc1` (stereo unspecified), the IC50 was 9.9 mM. Work on `CC1CCN(CC(=O)Nc2ccc(S(=O)(=O)N=C(N)N)cc2)CC1` yielded an IC50 of 4.98 mM. In the case of `COC(=O)C1CCN(CC(=O)Nc2ccc(S(=O)(=O)N=C(N)N)cc2)CC1`, the IC50 is reported as 9.3 mM. `CCOC(=O)C1CCN(CC(=O)Nc2ccc(S(=O)(=O)N=C(N)N)cc2)CC1` showed an IC50 of 2.99 mM. `CCCOC(=O)C1CCN(CC(=O)Nc2ccc(S(=O)(=O)N=C(N)N)cc2)CC1` gave an IC50 of 3.31 mM. Work on `CC(C)OC(=O)C1CCN(CC(=O)Nc2ccc(S(=O)(=O)N=C(N)N)cc2)CC1` yielded an IC50 of 2.35 mM. `CCCCOC(=O)C1CCN(CC(=O)Nc2ccc(S(=O)(=O)N=C(N)N)cc2)CC1` showed an IC50 of 9.5 mM. For `CC(C)CCOC(=O)C1CCN(CC(=O)Nc2ccc(S(=O)(=O)N=C(N)N)cc2)CC1`, the IC50 was 2.51 mM. For `NC(N)=NS(=O)(=O)c1ccc(NC(=O)COc2ccccc2)cc1`, the IC50 was 2.3 mM. Work on `Cc1ccccc1OCC(=O)Nc1ccc(S(=O)(=O)N=C(N)N)cc1` yielded an IC50 of 9.3 mM. `Cc1cccc(OCC(=O)Nc2ccc(S(=O)(=O)N=C(N)N)cc2)c1` was tested, and the IC50 was 8.92 mM. `Cc1ccc(OCC(=O)Nc2ccc(S(=O)(=O)N=C(N)N)cc2)cc1` showed an IC50 of 8.98 mM. `NC(N)=NS(=O)(=O)c1ccc(NC(=O)COc2ccc(Cl)cc2)cc1` was tested, and the IC50 was 9.35 mM. In the case of `COc1ccc(OCC(=O)Nc2ccc(S(=O)(=O)N=C(N)N)cc2)cc1`, the IC50 is reported as 9.84 mM. `NC(N)=NS(=O)(=O)c1ccc(NC(=O)COc2ccc([N+](=O)[O-])cc2)cc1` was tested, and the IC50 was 4.2 mM. For `COC(=O)c1ccc(OC(=O)c2ccc(NC(=N)N)cc2)cc1.CS(=O)(=O)O`, the IC50 was 0.027 mM.
